Measurements as given in ChEMBL document CHEMBL3400000, “The discovery of potent agonists for GPR88, an orphan GPCR, for the potential treatment of CNS disorders” (Bioorg Med Chem Lett, 2015).

biological target: G protein-coupled receptor 88 (Homo sapiens, UniProt Q9GZN0); assay: Agonist activity at GPR88 (unknown origin) transfected into cells assessed as cAMP accumulation by HTRF assay; type: functional
Sequence (Q9GZN0 whole entry): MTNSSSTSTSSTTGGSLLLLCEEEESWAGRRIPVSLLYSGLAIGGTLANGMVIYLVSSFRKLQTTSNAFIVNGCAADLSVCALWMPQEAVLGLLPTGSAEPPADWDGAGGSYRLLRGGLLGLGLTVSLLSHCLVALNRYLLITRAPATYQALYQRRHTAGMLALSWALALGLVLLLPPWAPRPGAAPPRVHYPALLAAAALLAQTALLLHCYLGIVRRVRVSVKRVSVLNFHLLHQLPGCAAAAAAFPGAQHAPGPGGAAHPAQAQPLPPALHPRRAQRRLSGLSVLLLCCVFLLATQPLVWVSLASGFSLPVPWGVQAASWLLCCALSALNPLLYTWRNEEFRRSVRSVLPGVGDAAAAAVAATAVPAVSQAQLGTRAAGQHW

| Compound | EC50 |
| --- | --- |
| CC[C@H](C)[C@H](N)CN(C(=O)[C@@H]1C[C@H]1c1ccccc1)c1ccc(-c2ccc(C(=O)N(C)C)cc2)cc1 | 980 nM |
| CC(C)C[C@H](N)CN(C(=O)[C@@H]1C[C@H]1c1ccccc1)c1ccc(-c2cccnc2)cc1 | 10000 nM |
| CC[C@H](C)[C@H](N)CN(C(=O)[C@@H]1C[C@H]1c1c(F)cccc1F)c1ccc(-c2ccccc2)cc1 | 11000 nM |
| CC[C@H](C)[C@H](N)CN(C(=O)[C@@H]1C[C@H]1c1nc(C)c(C)s1)c1ccc(-c2ccccc2)cc1 | 3600 nM |
| CC[C@H](C)[C@H](N)CN(C(=O)[C@@H]1C[C@H]1c1ccccc1F)c1ccc(-c2ccccc2)cc1 | 650 nM |
| CC(C)C[C@H](N)CN(C(=O)[C@@H]1C[C@H]1c1ccccc1)c1cccc(-c2ccccc2)c1 | 23000 nM |
| CC[C@H](C)[C@H](N)CN(C(=O)[C@@H]1C[C@H]1c1ccccc1Cl)c1ccc(-c2ccccc2)cc1 | > 25000 nM |
| CC[C@H](C)[C@H](N)CN(C(=O)[C@@H]1C[C@H]1c1cccc(C)c1)c1ccc(-c2ccccc2)cc1 | 1200 nM |
| CC[C@H](C)[C@H](N)CN(C(=O)[C@@H]1C[C@H]1c1cccc(Cl)c1)c1ccc(-c2ccccc2)cc1 | 2200 nM |
| CC(C)C[C@H](N)CN(C(=O)[C@@H]1C[C@H]1c1ccccc1)c1ccc(-c2ccc(Cl)cc2)cc1 | 640 nM |
| CC[C@H](C)[C@H](N)CN(C(=O)[C@@H]1C[C@H]1c1cccc(OC)c1)c1ccc(-c2ccccc2)cc1 | 3000 nM |
| CC[C@H](C)[C@H](N)CN(C(=O)[C@@H]1C[C@H]1c1cccnc1)c1ccc(-c2ccccc2)cc1 | 1500 nM |
| CC(C)C[C@H](N)CN(C(=O)[C@@H]1C[C@H]1c1ccccc1)c1ccccc1-c1ccccc1 | 6200 nM |

Now those with a lower EC50, led by results:

| EC50 | Compound |
| --- | --- |
| 600 nM | CC[C@H](C)[C@H](N)CN(C(=O)[C@@H]1C[C@H]1c1ccc(F)cc1)c1ccc(-c2ccccc2)cc1 |
| 330 nM | COc1ccc(-c2ccc(N(C[C@@H](N)CC(C)C)C(=O)[C@@H]3C[C@H]3c3ccccc3)cc2)cc1 |
| 210 nM | CC[C@H](C)[C@H](N)CN(C(=O)[C@@H]1C[C@H]1c1nccs1)c1ccc(-c2ccccc2)cc1 |
| 94 nM | CC[C@H](C)[C@H](N)CN(C(=O)[C@@H]1C[C@H]1c1ccccc1)c1ccc(-c2ccc(Oc3ccccc3)cc2)cc1 |
| 35 nM | CC[C@H](C)[C@H](N)CN(C(=O)[C@@H]1C[C@H]1c1ccccc1)c1ccc(-c2ccc(COC)cc2)cc1 |
| 10 nM | O=C([C@@H]1C[C@H]1c1ccccc1)N(CC1CCCNC1)c1ccc(-c2ccccc2)cc1 (stereo partly drawn) |
| 5.8 nM | CC[C@H](C)[C@@H](CN(C(=O)[C@@H]1C[C@H]1c1ccccc1)c1ccc(-c2ccccc2)cc1)NC(C)=O |
| 4.7 nM | N[C@H](CN(C(=O)[C@@H]1C[C@H]1c1ccccc1)c1ccc(-c2ccccc2)cc1)c1ccccc1 |
| 3 nM | CC(C)C[C@H](N)CCN(C(=O)[C@@H]1C[C@H]1c1ccccc1)c1ccc(-c2ccccc2)cc1 |
| 1.8 nM | CC(C)C[C@@H](N)CN(C(=O)[C@@H]1C[C@H]1c1ccccc1)c1ccc(-c2ccccc2)cc1 |
